Patent US12275721B2, “Indazole carboxamides as kinase inhibitors” (BRISTOL-MYERS SQUIBB COMPANY, priority 2019, dated 2025)
Where two headings read alike, the source gives them in different places.

Assays:
[1] = molecular target: T1, His-GST-TVMV-hRIPK1(1-324) (Homo sapiens, UniProt Q13546); test: RIPK1 HTRF Binding Assay; conditions: HTRF probe displacement, 1 h at rt
T1 construct: 1 nM His-GST-TVMV-hRIPK1(1-324) in FRET Buffer; made in house; host or cells: Spodoptera frugiperda (Sf9) insect cells, baculovirus (Bac-to-Bac)
T1 sequence (Q13546 1-324): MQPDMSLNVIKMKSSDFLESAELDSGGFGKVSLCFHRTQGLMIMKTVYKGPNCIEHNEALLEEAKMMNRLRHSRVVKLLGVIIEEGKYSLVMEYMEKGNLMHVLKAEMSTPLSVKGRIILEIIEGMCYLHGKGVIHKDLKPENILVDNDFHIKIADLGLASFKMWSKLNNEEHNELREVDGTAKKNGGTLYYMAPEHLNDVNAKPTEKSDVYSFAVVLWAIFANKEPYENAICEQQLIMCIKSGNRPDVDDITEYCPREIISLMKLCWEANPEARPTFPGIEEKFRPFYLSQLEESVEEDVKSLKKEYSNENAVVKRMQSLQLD
Protocol: A solution was prepared containing 0.2 nM Anti GST-Tb (Cisbio, 61GSTTLB), 90.6 nM probe and 1 nM His-GST-TVMV-hRIPK1(1-324) in FRET Buffer (20 mM HEPES, 10 mM MgCl2, 0.015% Brij-35, 4 mM DTT, 0.05 mg/mL BSA). Using Formulatrix Tempest, the detection antibody/enzyme/probe solution ([…]) was dispensed into wells of a 1536 plate (Black Low Binding Polystyrene 1536 Plate (Corning, 3724)) containing 10 nL of compounds of interest at appropriate concentration in DMSO. The plate was incubated at rt for 1 h. FRET was measured using the EnVision plate reader (Excitation: 340 nm, Emission: 520 nm/[…]). Total signal (0% inhibition) was calculated from wells containing 10 nL DMSO only.
Cloning and Baculovirus Expression of RIPK1 Construct
The coding region of human RIPK1(1-324) flanked by NdeI site at 5′ end and stop codon TGA and XhoI site at 3′ end was codon optimized and gene synthesized at GenScript USA Inc. (Piscataway, NJ) and subcloned into a modified pFastBac1 vector (Invitrogen, Carlsbad, CA) with N-terminal His-GST-TVMV tag, to generate His-GST TVMV-hRIPK1(1-324)-pFB. The fidelity of the synthetic fragment was confirmed by sequencing. Baculovirus was generated for the construct using the Bac-to-Bac baculovirus expression system (Invitrogen) according to the manufacturer's protocol. Briefly, recombinant bacmid was isolated from transformed DH10Bac E. coli competent cells 20 (Invitrogen) and used to transfect Spodoptera frugiperda (Sf9) insect cells (Invitrogen). Baculovirus was harvested 72 hours post transfection and a virus stock was prepared by infecting fresh Sf9 cells at a 1/1000 (v/v) ratio for 66 hours. For large scale protein production, Sf9 cells (Expression System, Davis, CA) grown in ESF921 insect medium (Expression System) at 2×10^6 cells/ml were infected with virus stock at a 1/100 (v/v) ratio for 66 hours. The production was carried out either at a 10 L scale in a 22 L cellbag (GE Healthcare Bioscience, Pittsburgh, PA) or at a 20 L scale in a 50 L cellbag using WAVE-Bioreactor System 20/50 (GE Healthcare Bioscience). The infected cells were harvested by centrifugation at 2000 rpm for 20 min at 4° C. in a SORVALL® RC12BP centrifuge. The cell pellets was stored at −70° C. before protein was purified.
Purification of His-GST-TVMV-hRIPK1(1-324)
RIPK1 containing cell paste was resuspended in 50 mM Tris pH 7.5, 150 mM NaCl, 10 mM imidazole, 5% glycerol, 5 mM MgSO4, 1 mM TCEP, 25 U/ml Benzonase, and Complete Protease Inhibitor tablets (1/50 ml, Roche Diagnostics, Indianapolis, IN). The cells were lysed by nitrogen cavitation using an unstirred pressure vessel @ 525 PSI (Parr Instrument Company, Moline, IL). The suspension was clarified by centrifugation at 136,000×g for 40 min, at 4° C. The lysate was decanted from the pellet and passed through a 5 ml NiNTA Superflow cartridge (Qiagen, Valencia, CA) using an AKTA Pure (GE Healthcare). Column was eluted with 10 CV linear gradient into 50 mM Tris 7.5, 150 mM NaCl, 500 mM imidazole, 5% glycerol, 1 mM TCEP. Peak fractions were pooled and loaded directly onto 5 ml GSTrap 4B column (GE Healthcare). Column was washed with 50 mM Tris 7.0, 150 mM NaCl, […], 1 mM DTT and eluted in 10 CV linear gradient into 50 mM Tris 8.0, 150 mM NaCl, 20 mM reduced glutathione, 50% glycerol, 1 mM DTT. Fractions identified by SDS-PAGE as containing RIPK1 were pooled and concentrated using 30 kDa MWCO spin concentrators (Amicon Ultra-15, Millipore, Billerica, MA) and loaded onto a HiLoad 26/600 Superdex 200 column (GE Healthcare) equilibrated in 25 mM Tris 7.5, 150 mM NaCl, 2 mM TCEP, […]. The RTPK1 protein eluted as a dimer off the SEC column. The yield was ˜8 mg/L with a purity […] as determined by Coomassie stain SDS-PAGE gel analysis. […] Protein was aliquoted and stored at −80° C. Using these assays, the IC50 values of the following compounds were determined.

[2] = test system: MLKL phosphorylation in HT29-L23 human colorectal adenocarcinoma cells; test: MLKL Phosphorylation High-Content Assay; format: cell-based; conditions: necroptosis induced with TNFα, SMAC mimetic and Z-VAD, 6 h, read-out: pMLKL (IC50)
Protocol: MLKL Phosphorylation High-Content Assay
HT29-L23 human colorectal adenocarcinoma cells were maintained in RPMI 1640 medium containing 10% heat-inactivated FBS, 1% Penicillin-Streptomycin and 10 mM HEPES. Cells were seeded at 2,000 cells/well in 384 well tissue culture-treated microplates (Greiner #781090-3B) and incubated at 37° C. (5% CO2/95% O2) for 2 d. On the day of the assay, the cells were treated with test compounds at final concentrations of 6.25 to 0.106 μM for 30 min at 37° C. (5% CO2/95% O2). Necroptopsis was induced using a mixture of human TNFα (35 ng/mL) (Peprotech #300-01A), SMAC mimetic (from US 2015/0322111 A1) (700 nM) and Z-VAD (140 nM) (BD pharmingen #51-6936). Following 6 h incubation at 37° C. (5% CO2/95% O2), the cells were fixed with 4% formaldehyde (ACROS 11969-0010) for 15 min at rt, then permeabilized with phosphate buffered saline (PBS) containing 0.2% Triton-X-100 for 10 min. MLKL phosphorylation was detected using anti-MLKL (phospho S358) antibody (Abcam #ab187091) (1:1000 dilution in Blocking Buffer [PBS supplemented with 0.1% BSA]) with ON incubation at 4° C. After washing three times in PBS, goat anti-rabbit Alexa-488 (1:1000 dilution) (Life Technologies, A1 1008) and Hoechst 33342 (Life Technologies, H3570) (1:2000 dilution) in Blocking Buffer were added for 1 h at rt. Following another three cycles of washes in PBS, the microplates were sealed, and cellular images were acquired in the Cellomics ArrayScan VTI high-content imager equipped with an X1 camera. Fluorescent images were taken using a 10× objective and the 386-23 BGRFRN_BGRFRN and 485-20 BGRFRN_BGRFRN filter sets, for nuclei and MLKL phosphorylation, respectively. The image sets were analyzed using the Compartmental Analysis Bioapplication software (Cellomics). The level of MLKL phosphorylation was quantified as MEAN_CircRingAvglntenRatio. The maximal inhibitory response was defined by the activity induced by Necls (CAS #: 852391-15-2, 6.25 μm). The IC50 value was defined as the concentration of compound that produces 50% of the maximal inhibition. The data were fitted using the 4-parameter logistic equation to calculate the IC50 and Ymax values.

Compound	IC50 [1]	IC50 [2]	IC50 ([2]; Homo sapiens)
(S)-6-(5-((3-(4-chlorophenyl)-3-hydroxypropyl)carbamoyl)-4-methylthiophen-2-yl)-N-methyl-1H-indazole-3-carboxamide [Example 13]	10 nM	23 nM	
CNC(=O)c1n[nH]c2cc(-c3nc(C(=O)NCc4cc(OC(F)(F)F)ccc4F)c(C)n3C)ccc12 [Example 31, 6-(4-((2-fluoro-5-(trifluoromethoxy)benzyl)carbamoyl)-1,5-dimethyl-1H-imidazol-2-yl)-N-methyl-1H-indazole-3-carboxamide]	66 nM		600 nM
CNC(=O)c1n[nH]c2cc(-c3nc(C)c(C(=O)NCc4cc(C(F)(F)F)ccc4F)s3)ccc12 [Example 18, N-(2-fluoro-5-(trifluoromethyl)benzyl)-4-methyl-2-(3-(methylcarbamoyl)-1H-indazol-6-yl)thiazole-5-carboxamide]	15 nM		9 nM
CNC(=O)c1n[nH]c2cc(-c3ncc(C(=O)NCC[C@@H](O)c4ccc(Cl)cc4)s3)ccc12 [Example 25, (R)-N-(3-(4-chlorophenyl)-3-hydroxypropyl)-2-(3-(methylcarbamoyl)-1H-indazol-6-yl)thiazole-5-carboxamide]	280 nM		1600 nM
CNC(=O)c1n[nH]c2cc(-c3nc(C)c(C(=O)NCc4cc(OC(F)(F)F)ccc4F)n3C)ccc12 [Example 26, 6-(5-((2-fluoro-5-(trifluoromethoxy)benzyl)carbamoyl)-1,4-dimethyl-1H-imidazol-2-yl)-N-methyl-1H-indazole-3-carboxamide]	30 nM		49 nM
CNC(=O)c1n[nH]c2cc(-c3nc(C)c(C(=O)NCCC(C)c4ccccc4)s3)ccc12 (centres unmarked) [Example 15, 4-methyl-2-(3-(methylcarbamoyl)-1H-indazol-6-yl)-N-(3-phenylbutyl)thiazole-5-carboxamide]	8.3 nM		44 nM
CNC(=O)c1n[nH]c2cc(-c3ccc(C(=O)NCCC(C)c4ccccc4)s3)ccc12 (centres unmarked) [Example 7, N-methyl-6-(5-((3-phenylbutyl)carbamoyl)thiophen-2-yl)-1H-indazole-3-carboxamide]	17 nM		3.9 nM
